# Experimental data published in patent US20110053897A1 (IRM LLC, priority 2009, published 2011).
# Biological target: T1, Syk kinase (Homo sapiens, UniProt P43405)
# T1 construct: purchased
# Assay: Syk kinase inhibition, Caliper LabChip off-chip mobility-shift kinase assay
# Assay type: biochemical
# Conditions: read-out: Syk Enzyme IC50
# How it was run: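 Purified Syk pre-incubated 15 min with compound in 100 mM HEPES pH 7.5, 1 mM DTT, 10 mM MgCl2 or MnCl2, 0.002% Brij-35, then 1.5 μM fluorescein peptide and ATP at apparent KM added; 1–1.5 h at room temperature, 4% DMSO, EDTA stop. Microfluidic mobility-shift product/substrate conversion gave % inhibition; IC50 from 12-point series (10–0.00003 μM) by 4-parameter fit.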
row,IC50 [nM],Compound
1,7,COc1cncc(-c2cc3cc[nH]c(=O)c3c(Nc3ccc(C4CCN(CC(O)CO)CC4)cc3)n2)n1 (stereo not drawn) [compound 127]
2,79,COc1cncc(-c2cc3cc[nH]c(=O)c3c(Nc3ccc(C4CCN(CCC#N)CC4)c(C)c3)n2)n1 [compound 128]
3,109,O=c1[nH]ccc2cc(-c3cncnc3)nc(Nc3ccc(C4CNC4)cc3)c12 [compound 129]
4,57,COc1ncc(-c2cc3cc[nH]c(=O)c3c(Nc3ccc(C4CNC4)cc3)n2)cn1 [compound 130]
5,111,Cc1ccc(-c2cc3cc[nH]c(=O)c3c(Nc3ccc(C4CNC4)cc3)n2)cn1 [compound 131]
6,115,COc1cncc(-c2cc3cc[nH]c(=O)c3c(Nc3ccc(C4CCN(CCS(C)(=O)=O)CC4)c(C)c3)n2)n1 [compound 132]
7,130,COc1cncc(-c2cc3cc[nH]c(=O)c3c(Nc3ccc(C4CCN(CC#N)CC4)c(C)c3)n2)n1 [compound 133]
8,40,COc1cncc(-c2cc3cc[nH]c(=O)c3c(Nc3ccc(C4CCN(CC(N)=O)CC4)c(C)c3)n2)n1 [compound 134]
9,48,CNC(=O)CN1CCC(c2ccc(Nc3nc(-c4cncc(OC)n4)cc4cc[nH]c(=O)c34)cc2C)CC1 [compound 135]
10,46,COc1cncc(-c2cc3cc[nH]c(=O)c3c(Nc3ccc(C4CCN(C(C)C(N)=O)CC4)c(C)c3)n2)n1 (stereo not drawn) [compound 136]
11,10,CCN1CCC(c2ccc(Nc3nc(-c4cncc(OC)n4)cc4cc[nH]c(=O)c34)cc2C)CC1 [compound 137]
12,26,CN1CC(c2ccc(Nc3nc(-c4cncnc4)cc4cc[nH]c(=O)c34)cc2)C1 [compound 138]
13,34,COc1ncc(-c2cc3cc[nH]c(=O)c3c(Nc3ccc(C4CN(C)C4)cc3)n2)cn1 [compound 139]
14,27,Cc1ccc(-c2cc3cc[nH]c(=O)c3c(Nc3ccc(C4CN(C)C4)cc3)n2)cn1 [compound 140]
15,7,COCCCN1CCC(c2ccc(Nc3nc(-c4cncc(OC)n4)cc4cc[nH]c(=O)c34)cc2C)CC1 [compound 141]
16,7,COCC(O)CN1CCC(c2ccc(Nc3nc(-c4cncc(OC)n4)cc4cc[nH]c(=O)c34)cc2C)CC1 (stereo not drawn) [compound 142]
17,5,COc1cncc(-c2cc3cc[nH]c(=O)c3c(Nc3ccc(C4CCN(CCO)CC4)c(C)c3)n2)n1 [compound 143]
18,92,COc1cncc(-c2cc3cc[nH]c(=O)c3c(Nc3ccc(C4CCN(C(C)=O)CC4)c(C)c3)n2)n1 [compound 144]
19,6,COc1cncc(-c2cc3cc[nH]c(=O)c3c(Nc3ccc(C4CNC4)cc3)n2)n1 [compound 145]
20,4,COc1cncc(-c2cc3cc[nH]c(=O)c3c(Nc3ccc(C4CN(C)C4)cc3)n2)n1 [compound 146]
21,4,COc1cncc(-c2cc3cc[nH]c(=O)c3c(Nc3ccc(C4CN(CCO)C4)cc3)n2)n1 [compound 147]
22,22,COc1cncc(-c2cc3cc[nH]c(=O)c3c(Nc3ccc(C4CN(CCS(C)(=O)=O)C4)cc3)n2)n1 [compound 148]
23,24,COc1cncc(-c2cc3cc[nH]c(=O)c3c(Nc3ccc(C4CN(C(C)=O)C4)cc3)n2)n1 [compound 149]
24,83,COCCN1CC(c2ccc(Nc3nc(-c4cncc(OC)n4)cc4cc[nH]c(=O)c34)cc2)C1 [compound 150]

row,IC50 [nM],Compound
1,201,COc1ncc(-c2cc3cc[nH]c(=O)c3c(Nc3ccc(CCN4CCNC(=O)C4)cc3)n2)cn1 [compound 151]
2,117,Cc1ccc(-c2cc3cc[nH]c(=O)c3c(Nc3ccc(CCN4CCNC(=O)C4)cc3)n2)cn1 [compound 152]
3,32,COc1cncc(-c2cc3cc[nH]c(=O)c3c(Nc3ccc(C4CN(CCC#N)C4)cc3)n2)n1 [compound 153]
4,20,COc1nc(-c2cc3cc[nH]c(=O)c3c(Nc3ccc(C4CCN(CCC#N)CC4)cc3)n2)cnc1N [compound 154]
5,55,COc1cncc(-c2cc3cc[nH]c(=O)c3c(Nc3ccc(CCN4CCNC(=O)C4)cc3)n2)n1 [compound 155]
6,41,COc1cncc(-c2cc3cc[nH]c(=O)c3c(Nc3ccc(C4CCN(CC(=O)N5CCCC5)CC4)c(C)c3)n2)n1 [compound 156]
7,99,COC(=O)CN1CCC(c2ccc(Nc3nc(-c4cncc(OC)n4)cc4cc[nH]c(=O)c34)cc2C)CC1 [compound 157]
8,24,COc1cncc(-c2cc3cc[nH]c(=O)c3c(Nc3ccc(C4CCN(CCC(N)=O)CC4)c(C)c3)n2)n1 [compound 158]
9,38,COc1cncc(-c2cc3cc[nH]c(=O)c3c(Nc3ccc(C4CCN(CCC(=O)N(C)C)CC4)c(C)c3)n2)n1 [compound 159]
10,81,COC(=O)CCN1CCC(c2ccc(Nc3nc(-c4cncc(OC)n4)cc4cc[nH]c(=O)c34)cc2C)CC1 [compound 160]
11,18,CNC(=O)CCN1CCC(c2ccc(Nc3nc(-c4cncc(OC)n4)cc4cc[nH]c(=O)c34)cc2C)CC1 [compound 161]
12,32,COc1cncc(-c2cc3cc[nH]c(=O)c3c(Nc3ccc(C4CCN(CCC(=O)N5CCOCC5)CC4)c(C)c3)n2)n1 [compound 162]
13,7,COc1cncc(-c2cc3cc[nH]c(=O)c3c(Nc3ccc(C4CCN(CCC(=O)O)CC4)c(C)c3)n2)n1 [compound 163]
14,287,COc1cncc(-c2cc3cc[nH]c(=O)c3c(Nc3ccc(C4CCN(C5COC5)CC4)c(C)c3)n2)n1 [compound 164]
15,3,COc1cncc(-c2cc3cc[nH]c(=O)c3c(Nc3ccc(C4CCN(C(C)C)CC4)c(C)c3)n2)n1 [compound 165]
16,3,COc1cncc(-c2cc3cc[nH]c(=O)c3c(Nc3ccc(C4CCN(CC(O)CO)CC4)c(C)c3)n2)n1 (stereo not drawn) [compound 166]
17,91,COc1cncc(-c2cc3cc[nH]c(=O)c3c(Nc3ccc(C4CCN(CC(=O)N(C)C)CC4)c(C)c3)n2)n1 [compound 167]
18,4,COc1nc(-c2cc3cc[nH]c(=O)c3c(Nc3ccc(C4CCNCC4)c(C)c3)n2)cnc1N [compound 168]
19,29,COc1nc(-c2cc3cc[nH]c(=O)c3c(Nc3ccc(C4CCN(CCC#N)CC4)c(C)c3)n2)cnc1N [compound 169]
20,6,COc1cncc(-c2cc3cc[nH]c(=O)c3c(Nc3ccc(C4CCN(C(C)C(=O)N(C)C)CC4)c(C)c3)n2)n1 (stereo not drawn) [compound 170]
21,160,COc1cncc(-c2cc3cc[nH]c(=O)c3c(Nc3ccc(C4CCN(C(C)CC#N)CC4)c(C)c3)n2)n1 (stereo not drawn) [compound 171]
22,19,COc1cncc(-c2cc3cc[nH]c(=O)c3c(Nc3ccc(C4CCN(CCCC#N)CC4)c(C)c3)n2)n1 [compound 172]
23,11,CNC(=O)C(C)N1CCC(c2ccc(Nc3nc(-c4cncc(OC)n4)cc4cc[nH]c(=O)c34)cc2C)CC1 (stereo not drawn) [compound 173]
24,14,COCC(C)N1CCC(c2ccc(Nc3nc(-c4cncc(OC)n4)cc4cc[nH]c(=O)c34)cc2C)CC1 (stereo not drawn) [compound 174]

row,IC50 [nM],Compound
1,144,COc1cncc(-c2cc3cc[nH]c(=O)c3c(Nc3ccc(C4CCN(C(C)C(=O)NC(C)C)CC4)c(C)c3)n2)n1 (stereo not drawn) [compound 175]
2,41,COc1cncc(-c2cc3cc[nH]c(=O)c3c(Nc3ccc(C4CCN(CC(=O)N(C)OC)CC4)c(C)c3)n2)n1 [compound 176]
3,496,COc1cncc(-c2cc3cc[nH]c(=O)c3c(Nc3ccc(C4CCN(C(=O)N(C)C)CC4)c(C)c3)n2)n1 [compound 177]
4,61,COc1cncc(-c2cc3cc[nH]c(=O)c3c(Nc3ccc(C4CCN(CC(C)C#N)CC4)c(C)c3)n2)n1 (stereo not drawn) [compound 178]
5,80,CCNC(=O)CN1CCC(c2ccc(Nc3nc(-c4cncc(OC)n4)cc4cc[nH]c(=O)c34)cc2C)CC1 [compound 179]
6,115,COCC(C)Nc1nc(-c2cnc(N)nc2)cc2cc[nH]c(=O)c12 (stereo not drawn) [compound 180]
7,15,Nc1ncc(-c2cc3cc[nH]c(=O)c3c(N3CCCC3)n2)cn1 [compound 181]
8,30,Nc1ncc(-c2cc3cc[nH]c(=O)c3c(N[C@@H]3CCC[C@@H]3O)n2)cn1 [compound 182]
9,203,CC(CO)Nc1nc(-c2cnc(N)nc2)cc2cc[nH]c(=O)c12 (stereo not drawn) [compound 183]
10,59,Nc1ncc(-c2cc3cc[nH]c(=O)c3c(N[C@@H]3CCC[C@H]3O)n2)cn1 [compound 184]
11,145,Nc1ncc(-c2cc3cc[nH]c(=O)c3c(NC3CCOC3)n2)cn1 (stereo not drawn) [compound 185]
12,178,CC(C)CNc1nc(-c2cnc(N)nc2)cc2cc[nH]c(=O)c12 [compound 186]
13,301,CC[C@H](C)Nc1nc(-c2cnc(N)nc2)cc2cc[nH]c(=O)c12 [compound 187]
14,93,Nc1ncc(-c2cc3cc[nH]c(=O)c3c(NCCc3cccnc3)n2)cn1 [compound 188]
15,384,Nc1ncc(-c2cc3cc[nH]c(=O)c3c(NCC3CC3)n2)cn1 [compound 189]
16,286,COCCCNc1nc(Nc2ccccn2)cc2cc[nH]c(=O)c12 [compound 190]
17,187,CCn1ccc2cc(Nc3cc(C)ccn3)nc(NC(C)C)c2c1=O [compound 191]
18,263,Cc1n[nH]c2ncc(-c3cc4cc[nH]c(=O)c4c(Nc4ccc(N5CCOCC5)cc4)n3)cc12 [compound 192]
19,28,O=c1[nH]ccc2cc(-c3cncnc3)nc(Nc3ccc(C4CCNCC4)c(F)c3)c12 [compound 194]
20,59,COCCCN1CCC(c2ccc(Nc3nc(-c4cnc(OC)nc4)cc4cc[nH]c(=O)c34)cc2F)CC1 [compound 196]
21,35,COCCCN1CCC(c2ccc(Nc3nc(-c4cncnc4)cc4cc[nH]c(=O)c34)cc2F)CC1 [compound 197]
22,31,COCCN1CCC(c2ccc(Nc3nc(-c4cncnc4)cc4cc[nH]c(=O)c34)cc2F)CC1 [compound 198]
23,20,CCN1CCN(c2n[nH]c3cc(Nc4nc(-c5cncnc5)cc5cc[nH]c(=O)c45)ccc23)CC1 [compound 199]
24,56,CCN1CCN(c2n[nH]c3cc(Nc4nc(-c5ccc(C)nc5)cc5cc[nH]c(=O)c45)ccc23)CC1 [compound 200]
